In US5077195A, “Polypeptides complementary to peptides or proteins having an amino acid sequence or nucleotide coding sequence at least partially known and methods of design therefor” (Board of Reagents, The University of Texas System, priority 1986, dated 1991):
Where “and” joins values, the source holds several entries; their conditions need not be identical. Identical values can stand only once. Where no end group is shown, it is not given here.

Legend:
angiotensin II receptors = experiment: Binding of [^125 I] angiotensin II to isolated hepatic receptor; set-up: species or system Rabbit; details: concentration that inhibits binding of radiolabelled angiotensin II by 50%; 0.25 nM label; 60 minutes at 20° C.
Method: Rabbit livers were homogenized, and were centifuged in order to isolate particles sedimenting between 1,000 and 100,000 xg. Binding activity was solublized with 1% digitonin, followed by ammonium sulfate fractionation between 49 and 65% satuation followed by DEAE- cellulose chromatography at pH 7.5 using a linear gradient between 0.0 and 0.3M KCl.
The reaction is initiated by addition of the receptor and samples are incubated for 60 minutes at 20° C. The reaction is terminated with 1 ml of cold 0.5% charcoal/0.05% Dextran in 100 mM Tris-HCl, pH 7.5.
The complete system under these conditions regularly yields about 10,000 cpm of bound radioactivity.

HTCA = experiment: ELISA binding of immunoglobulins to HTCA-coated plates; details: Plates coated with HTCA
Method: (§1) Two peptides complementary to ACTH, described in Examples 1B and 1C as HTCA and 3'-5' HTCA, were each coupled to Keyhole Limpet Hemocyanin (KLH) with glutaraldeyde (1 mg peptide, 1 mg KLH, 30 mM glutaraldehyde for 30 minutes at room temperature followed by dialysis) to prepare antigens for rabbit immunization. Two rabbits were injected separately with 250 ug of peptide-KLH antigens weekly for four weeks. Each rabbit was bled biweekly for three weeks following the last injection. Antibodies representing the total immunoglobulin from serum of each rabbit was purified by precipitation from serum with 50% saturated ammonium sulfate at 4° C. followed by standard ion exchange chromatography on a DEAE column.
To examine the binding of each of the immunoglobulins to each of the peptides, enzyme-linked immunosorbant assays were performed. In these assays, one of the complementary peptides was coated onto polycarbonate plates in a carbonate coating buffer at pH 9.0 overnight. Unbound peptide was removed by washing three times with phosphate buffered saline (PBS)-TWEEN 20. Various amounts of immunoglobulins were added to peptide-coated wells in PBS-TWEEN 20 solution and incubated for one hour. Unbound immunoglobulin was removed by washing with PBS-TWEEN 20. To each well was added a 1:300 dilution of goat anti-rabbit IgG coupled to alkaline phosphatase enzyme. After one hour the wells were washed with PBS-TWEEN 20 to remove unbound secondary antibodies. The amount of remaining secondary antibody was determined by reacting p-nitrophenyl phosphate with the remaining aklaline phosphatase enzyme for 15 minutes, stopping the reaction with 3M NaOH, and measuring nitrophenol produced spectrophotometrically at 490 nm.

^125 I-ACTH = target: T1, ^125 I-ACTH (Homo sapiens, UniProt P01189); experiment: Solid-phase binding of ^125 I-ACTH to 5'-3' and 3'-5' complementary peptides
T1 construct: ACTH plates+immunized rabbit immunoglobulin
T1 sequence (P01189 138-176 limits assumed): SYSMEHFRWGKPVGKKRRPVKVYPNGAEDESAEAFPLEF
Method: A solid-phase binding assay was used to determine the ability of both the 5'-to-3' and the 3'-to-5'-complementary-RNA-strand peptides (see Examples 1A and 1C) to bind ^125 I-ACTH. The peptides were diluted in phosphate-buffered saline (140 mM-NaCl/3 mM-KCl/0.1% NaN3 /20 mM-phosphate buffer, pH 7.4) to 2 mg/ml, and 0.2 ml/well was placed into poly(vinyl chloride) micro-titre plates (Becton and Dickinson, Oxnard, CA, U.S.A.). After 18 h at 4° C., unbound peptide was removed by washing three times with phosphate-buffered saline containing 0.1% bovine serum albumin (Sigma Chemical Co., St. Louis, MO, U.S.A.). ^125 I-ACTH was diluted to various concentrations with phosphate-buffered saline containing 0.1% bovine serum albumin and incubated in peptide-coated wells for 60 minutes at 4° C. […] After incubation, unbound radiolabel was washed out with phosphate-buffered saline containing 0.1% bovine serum albumin, and the radioactivity of individual wells was measured by gamma-radiation counting. The amount of specifically bound radioactivity was determined by blocking ^125 I-ACTH binding with unlabelled ACTH. Additional controls included coating wells with insulin or bovine serum albumin (2 mg/ml) before the addition of the ^125 I-ACTH.

I^125 ACTH (1-39) = target: T2, I^125 ACTH (1-39) (Homo sapiens, UniProt P01189); experiment: ^125 I-ACTH binding to peptide-coated microtiter wells
T2 construct: I^125 ACTH (1-39) (New England Nuclear Boston, MA); purchased New England Nuclear (Boston, MA)
T2 sequence (P01189 138-176 limits assumed): T1 sequence (P01189 138-176 limits assumed)
Method: Utilizing techniques described in Example 1B, polyvinyl microtiter wells were coated with 3'-5' HTCA from a 1 mM solution thereof or with BSA.
The BSA and 3'-5' HTCA coated wells were washed and then treated with one of three solutions of I^125 ACTH (1-39) (New England Nuclear Boston, MA) having different concentrations. After a forty five minute incubation period the solution was removed and the microtiter wells extensively washed. The microtiter wells were separated and assayed for iodine^125content in a Beckman Gamma 5500 gamma counter. Bound ^125 I-ACTH was measured in duplicate at three concentrations in the absence and presence of excess unlabelled ACTH.
Utilizing the cRNA sequence and HTCA sequence shown in Table 8 of Example 1A, a series of peptides having a carboxy-terminal portion of the HTCA amino acid were synthesized. A pentamer (5-mer) contained the amino acid sequence: H2 N-Phe-His-Gly-Val-Arg-COOH. A decamer (10-mer) contained the amino acid sequence: H2 N-[…]COOH. A twenty membered peptide (20-mer) contained the amino acids sequence: H2 N-[…] Val-Arg-COOH. Each of thes peptides was used to coat microtiter wells and the coated wells tested for the ability to bind ^125 I-ACTH as described in Example 1C.
A 24-mer HTCA variant (R-HTCA) with reversed amino acid sequence directionality (amino-terminal and carboxy-terminal ends being reversed) was synthesized and had the following sequence: H2 N-[…] Arg-His-Leu-His-Val-Gly-COOH. The well-coating and ^125 I-ACTH binding procedures were performed as described in Example 1-C and the resultant data shown in Table 11.

3'-5' HTCA = experiment: ELISA binding of immunoglobulins to 3'-5' HTCA-coated plates; details: Plates coated with 3'-5' HTCA; antibody 0.11 mg/ml
Method: as §1
To examine the binding of each of the immunoglobulins to each of the peptides, enzyme-linked immunosorbant assays were performed. In these assays, one of the complementary peptides was coated onto polycarbonate plates in a carbonate coating buffer at pH 9.0 overnight. Unbound peptide was removed by washing three times with phosphate buffered saline (PBS)-TWEEN 20. […] The amount of remaining secondary antibody was determined by reacting p-nitrophenyl phosphate with the remaining aklaline phosphatase enzyme for 15 minutes, stopping the reaction with 3M NaOH, and measuring nitrophenol produced spectrophotometrically at 490 nm.

| Substance | ID50 (angiotensin II receptors) | Absorbance at 490 nm (HTCA; antibody 0.04 mg/ml) | Absorbance at 490 nm (HTCA; antibody 0.11 mg/ml) | Absorbance at 490 nm (HTCA; antibody 0.3 mg/ml) | Absorbance at 490 nm (HTCA; antibody added 0.012 mg/ml) | effectiveness in binding ACTH (in words) (^125 I-ACTH) | binding of ^125 I-ACTH to coated wells (in words) (I^125 ACTH (1-39)) | Bound CPM - ^125 I-ACTH (I^125 ACTH (1-39); 1:3 dilution ^125 I-ACTH) | Bound CPM - ^125 I-ACTH (I^125 ACTH (1-39); 1:3 dilution ^125 I-ACTH, + Excess ACTH) | Bound CPM - ^125 I-ACTH (I^125 ACTH (1-39); 1:9 dilution ^125 I-ACTH, + Excess ACTH) | Bound CPM - ^125 I-ACTH (I^125 ACTH (1-39); conc ^125 I-ACTH) | Bound CPM - ^125 I-ACTH (I^125 ACTH (1-39); conc ^125 I-ACTH, + Excess ACTH) | Absorbance at 490 nm (3'-5' HTCA) |
| --- | --- | --- | --- | --- | --- | --- | --- | --- | --- | --- | --- | --- | --- |
| Ac-KGVYIHAL-NH2 [CCA-AII (Ac, Am), Ac--LYS--GLY--VAL--TYR--ILE--HIS--ALA--LEU--Am] | 3,100 nM | – | – | – | – | – | – | – | – | – | – | – | – |
| RMRYLVKATPFGHPFFAAGHFHMG [3'-5' HTCA] | – | 0.24 ± 0.08 | 0.37 ± 0.09 | 0.91 ± 0.11 | 0.08 ± 0.04 | equally effective in binding ACTH | binds to coated 3'-5' HTCA | 601 CPM and 590 CPM | 287 CPM and 299 CPM | 191 CPM and 183 CPM | 1819 CPM and 1716 CPM | 616 CPM and 615 CPM | 0.89 ± 0.23 |
